# Test results taken from the supplement of paper PMC11208160.
# Assay: recombinant UMI read abundance after kanamycin selection (control-corrected) (log10(CPM+1)); higher = more efficient recombination; extreme values may be limits of the assay; sequences stand for … in AGTGCAGAGAAAATCGGCCAGTTTTCTCTGCCTGCAGTCCGCATGCCGTGGGACCCCTTGGGTTCTAACCTGTTGCCTAGATTTATGCAGCGGACTGCCTTTCTCCCAAAGTGATAAACCGG…AGGTTGGTTTCACT; site = the 11-nt donor
# Procedure, shortened: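 For the IS621 bridge recombinase, a pooled Escherichia coli screen tested donor and donor-binding-loop pairs. Cells received the pair library together with a target plasmid encoding a fixed target and T7-inducible recombinase, then went onto IPTG (0.07 mM) plus kanamycin or unselected plates in duplicate. After PCR across the donor–target junction and sequencing, recombinant UMI counts were normalized to CPM, averaged, and scaled by control-derived factors. Each value is given as log10(CPM+1).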
row,Sequence,recombinant UMI read abundance (log10)
1,CTCTACACATGGACCGGTTTTCCCGGTAATCCGTATTTGCT (site CTCTTCACTAG),0.548
2,CTCTACACATGGACCGGTTTTCCCGGTAATCCGTATTTGCT (site CTGTACACTAG),0.0999
3,CTCTACACATGGACCGGTTTTCCCGGTAATCCGTATTTGCT (site CTTTACACTAG),0.644
4,CTCTACACATGGACCGGTTTTCCCGGTAATCCGTATTTGCT (site GTCTACACTAG),0.232
5,CTCTACACATGGACCGGTTTTCCCGGTAATCCGTATTTGCT (site TTCTACACTAG),0.107
6,CTCTACACATGGACCGGTTTTCCCGGTAATCCGTATTTGTT (site CTCTACACTAA),0.93
7,CTCTACACATGGACCGGTTTTCCCGGTAATCCGTATTTGTT (site CTCTACACTAC),0.0026
8,CTCTACACATGGACCGGTTTTCCCGGTAATCCGTATTTGTT (site CTCTACACTAG),1.45
9,CTCTACACATGGACCGGTTTTCCCGGTAATCCGTATTTGTT (site CTCTACACTAT),0.616
10,CTCTACTCATGGACCGGTTTTCCCGGTAATCCGTATTTGCT (site CTCTACACTAG),0.869
11,CTCTACTCATGGACCGGTTTTCCCGGTAATCCGTATTTGCT (site CTCTACCCTAG),1.17
12,CTCTACTCATGGACCGGTTTTCCCGGTAATCCGTATTTGCT (site CTCTACGCTAG),0.00255
13,CTCTACTCATGGACCGGTTTTCCCGGTAATCCGTATTTGCT (site CTCTACTCTAG),2.5
14,CTCTAGCCATGGACCGGTTTTCCCGGTAATCCGTATTTGCC (site CACTAGCCTGG),0.69
15,CTCTAGCCATGGACCGGTTTTCCCGGTAATCCGTATTTGCC (site CCCTAGCCTGG),0
16,CTCTAGCCATGGACCGGTTTTCCCGGTAATCCGTATTTGCC (site CGCTAGCCTGG),0
17,CTCTAGCCATGGACCGGTTTTCCCGGTAATCCGTATTTGCC (site CTCTAGCCTGG),0
18,CTCTATACATGGACCGGTTTTCCCGGTAATCCGTATTTGAC (site ATCTATACTGT),0
19,CTCTATACATGGACCGGTTTTCCCGGTAATCCGTATTTGAC (site CTCTATACTGT),2.07
20,CTCTATACATGGACCGGTTTTCCCGGTAATCCGTATTTGAC (site GTCTATACTGT),0.00602
21,CTCTATACATGGACCGGTTTTCCCGGTAATCCGTATTTGAC (site TTCTATACTGT),0
22,CTCTCATCATGGACCGGTTTTCCCGGTAATCCGTATTTGCT (site CGATCATCTAG),0
23,CTCTCATCATGGACCGGTTTTCCCGGTAATCCGTATTTGCT (site CTCTCATCTAG),2.05
24,CTCTCCACATGGACCGGTTTTCCCGGTAATCCGTATTTGTC (site CTCTCCACTGA),2.77
25,CTCTCGACATGGACCGGTTTTCCCGGTAATCCGTATTTGAC (site CTCTCGACTGT),1.34

row,Sequence,recombinant UMI read abundance (log10)
1,CTCTGCCCATGGACCGGTTTTCCCGGTAATCCGTATTTGAT (site CTCTGCCCTAT),0.509
2,CTCTGGCCATGGACCGGTTTTCCCGGTAATCCGTATTTGCG (site CTCTGGCCTCG),0
3,CTCTTCTCATGGACCGGTTTTCCCGGTAATCCGTATTTGCT (site CTCTTCTCTAG),2.6
4,CTGAATTCATGGACCGGTTTTCCCGGTAATCCGTATTTGCC (site CTGAATTCTGG),1.06
5,CTGACATCATGGACCGGTTTTCCCGGTAATCCGTATTTGAG (site CTGACATCTCT),1.86
6,CTGACGACATGGACCGGTTTTCCCGGTAATCCGTATTTGCA (site CTGACGACTTG),1.71
7,CTGATACCATGGACCGGTTTTCCCGGTAATCCGTATTTGTA (site CTGATACCTTA),0.00514
8,CTGCAACCATGGACCGGTTTTCCCGGTAATCCGTATTTGCT (site CTGCAACCTAG),0.209
9,CTGCAACCATGGACCGGTTTTCCCGGTAATCCGTATTTGCT (site CTGCCACCTAG),0.0268
10,CTGCAACCATGGACCGGTTTTCCCGGTAATCCGTATTTGCT (site CTGCGACCTAG),0.00379
11,CTGCAACCATGGACCGGTTTTCCCGGTAATCCGTATTTGCT (site CTGCTACCTAG),0
12,CTGCATCCATGGACCGGTTTTCCCGGTAATCCGTATTTGTT (site CGGAATCCTAA),0.00365
13,CTGCATCCATGGACCGGTTTTCCCGGTAATCCGTATTTGTT (site CTGCATCCTAA),0.855
14,CTGCGACCATGGACCGGTTTTCCCGGTAATCCGTATTTGCT (site CTGCAACCTAG),0
15,CTGCGACCATGGACCGGTTTTCCCGGTAATCCGTATTTGCT (site CTGCCACCTAG),0.0046
16,CTGCGACCATGGACCGGTTTTCCCGGTAATCCGTATTTGCT (site CTGCGACCTAG),0
17,CTGCGACCATGGACCGGTTTTCCCGGTAATCCGTATTTGCT (site CTGCTACCTAG),0
18,CTGCGCTCATGGACCGGTTTTCCCGGTAATCCGTATTTGCG (site CTGCGCTCTCG),1.11
19,CTGCGTGCATGGACCGGTTTTCCCGGTAATCCGTATTTGTA (site CTGCGTGCTTA),2.28
20,CTGCTATCATGGACCGGTTTTCCCGGTAATCCGTATTTGAC (site CTAGTATCTGT),0
21,CTGCTATCATGGACCGGTTTTCCCGGTAATCCGTATTTGAC (site CTGCTATCTGT),1.26
22,CTGCTCCCATGGACCGGTTTTCCCGGTAATCCGTATTTGCT (site CTGCTACCTAG),0
23,CTGCTCCCATGGACCGGTTTTCCCGGTAATCCGTATTTGCT (site CTGCTCCCTAG),1.78
24,CTGCTCCCATGGACCGGTTTTCCCGGTAATCCGTATTTGCT (site CTGCTGCCTAG),0
25,CTGCTCCCATGGACCGGTTTTCCCGGTAATCCGTATTTGCT (site CTGCTTCCTAG),0

row,Sequence,recombinant UMI read abundance (log10)
1,CTGCTGCCATGGACCGGTTTTCCCGGTAATCCGTATTTGGC (site CTGCTGCCTGC),0
2,CTGGAAACATGGACCGGTTTTCCCGGTAATCCGTATTTGTA (site CTGGAAACTTA),2.14
3,CTGGAAACATGGACCGGTTTTCCCGGTAATCCGTATTTGTA (site CTGGAAACTTC),0.294
4,CTGGAAACATGGACCGGTTTTCCCGGTAATCCGTATTTGTA (site CTGGAAACTTG),1.22
5,CTGGAAACATGGACCGGTTTTCCCGGTAATCCGTATTTGTA (site CTGGAAACTTT),1.81
6,CTGGAAGCATGGACCGGTTTTCCCGGTAATCCGTATTTGCA (site CTGGAAACTTG),0.803
7,CTGGAAGCATGGACCGGTTTTCCCGGTAATCCGTATTTGCA (site CTGGAACCTTG),0
8,CTGGAAGCATGGACCGGTTTTCCCGGTAATCCGTATTTGCA (site CTGGAAGCTTG),1.04
9,CTGGAAGCATGGACCGGTTTTCCCGGTAATCCGTATTTGCA (site CTGGAATCTTG),3.42
10,CTGGACACATGGACCGGTTTTCCCGGTAATCCGTATTTGAG (site CTGGACACTCT),1.47
11,CTGGAGGCATGGACCGGTTTTCCCGGTAATCCGTATTTGTG (site ATGGAGGCTCA),0.00337
12,CTGGAGGCATGGACCGGTTTTCCCGGTAATCCGTATTTGTG (site CTGGAGGCTCA),1.02
13,CTGGAGGCATGGACCGGTTTTCCCGGTAATCCGTATTTGTG (site GTGGAGGCTCA),0.0315
14,CTGGAGGCATGGACCGGTTTTCCCGGTAATCCGTATTTGTG (site TTGGAGGCTCA),0.0143
15,CTGGATACATGGACCGGTTTTCCCGGTAATCCGTATTTGCA (site CTGGAAACTTG),1.14
16,CTGGATACATGGACCGGTTTTCCCGGTAATCCGTATTTGCA (site CTGGACACTTG),1.92
17,CTGGATACATGGACCGGTTTTCCCGGTAATCCGTATTTGCA (site CTGGAGACTTG),0.473
18,CTGGATACATGGACCGGTTTTCCCGGTAATCCGTATTTGCA (site CTGGATACTTG),1.81
19,CTGGATACATGGACCGGTTTTCCCGGTAATCCGTATTTGTC (site CTGGATACTGA),1.89
20,CTGGGACCATGGACCGGTTTTCCCGGTAATCCGTATTTGGT (site CTGGGACCTAC),0.0117
21,CTGGGATCATGGACCGGTTTTCCCGGTAATCCGTATTTGCT (site CTGGGATCTAG),1.9
22,CTGGGCGCATGGACCGGTTTTCCCGGTAATCCGTATTTGTA (site CTGGGCGCTTA),1.62
23,CTGGTATCATGGACCGGTTTTCCCGGTAATCCGTATTTGAA (site CTAGTATCTGT),2.25
24,CTGGTATCATGGACCGGTTTTCCCGGTAATCCGTATTTGAA (site CTGGTATCTTT),2.5
25,CTGGTTACATGGACCGGTTTTCCCGGTAATCCGTATTTGAG (site CTGGTTACTCT),1.7
